In publication PMC3189179, “Rapid Development of New Protein Biosensors Utilizing Peptides Obtained via Phage Display” (PLoS ONE, 2011):

How the values were obtained:
ALT (human liver) [1] = target: T1, ALT (human liver) (Homo sapiens, UniProt P24298); assay: Uninhibited ALT enzyme kinetics (coupled ALT/LDH assay); assay type: biochemical; settings: absence of peptide, pH 7.8, 37 °C, triplicate, bi-bi ping-pong fit (Eqn. 1)
T1 construct: ALT (human liver) and lactate dehydrogenase (LDH) were obtained from Lee Biosolutions, Inc; purchased Lee Biosolutions, Inc. (St. Louis, Missouri); host or cells: human liver
T1 sequence (P24298 2-496 limits assumed): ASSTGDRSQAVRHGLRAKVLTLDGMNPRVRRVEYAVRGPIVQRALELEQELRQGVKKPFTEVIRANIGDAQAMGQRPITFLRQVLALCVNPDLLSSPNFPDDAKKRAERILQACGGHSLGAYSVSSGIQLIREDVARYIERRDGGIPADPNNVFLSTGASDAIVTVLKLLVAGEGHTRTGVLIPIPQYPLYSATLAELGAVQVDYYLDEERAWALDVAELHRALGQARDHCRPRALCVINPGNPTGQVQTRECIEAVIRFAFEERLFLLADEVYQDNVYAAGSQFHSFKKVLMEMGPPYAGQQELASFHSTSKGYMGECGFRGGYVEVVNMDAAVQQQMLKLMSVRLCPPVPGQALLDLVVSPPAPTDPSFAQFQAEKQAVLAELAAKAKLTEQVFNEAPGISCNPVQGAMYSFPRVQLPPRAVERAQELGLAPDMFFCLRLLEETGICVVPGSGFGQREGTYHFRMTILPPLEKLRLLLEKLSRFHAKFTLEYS
Protocol: ALT enzyme kinetics were measured to determine the impact of the ALT5-8 peptide on the activity of the enzyme. Kinetic experiments were performed in a coupled assay where the pyruvate generated by ALT was reduced to lactate by LDH with the concomitant oxidation of NADH. The depletion of NADH was monitored by following its absorbance at 340 nm in UV-transparent microplates. […] Initial concentrations of pyridoxal 5′-phosphate, NADH, and LDH were 0.1 mM, 0.25 mM and 47 U/L respectively. The reactions were initiated by the addition of 330 U/L ALT and all measurements were made in triplicate. All stock solutions were prepared in 100 mM Tris-HCl buffer (pH 7.8), and all kinetic trials were conducted 300 µL at 37 °C.

ALT (human liver) [2] = target: T1, ALT (human liver); assay: ELISA for phage clone binding to immobilized ALT; settings: 10^5 to 10^11 pfu, triplicate, 405 nm, 1 hr room temperature
Protocol: To test whether or not the selected phage clones from the biopanning procedure could bind to ALT, ELISA assays were performed. Microplates were coated with ALT (2.6 µg/mL) overnight at 4°C, blocked with blocking buffer, and washed 6 times with TBST solution (containing 0.1% Tween 20). Varying amounts of amplified phage clones were added to each well and incubated for 1 hr at room temperature. After washing, HRP-conjugated anti-M13 monoclonal antibody (diluted 1∶5000 in blocking buffer) was added and incubated at room temperature for 1 hr. Following incubation and washing again with the same buffer, ABTS and H2O2 (30%, v/v) were added and the absorbance was measured after a 1 hr incubation with mild agitation at 405 nm with a microplate spectrophotometer (Molecular Devices, Sunnyvale, CA).
In order to estimate the apparent dissociation constant for the ALT5-8 clone, further ELISA experiments were performed with extended phage concentrations. The data were fit to a Langmuir isotherm using non-linear regression (SigmaPlot, San Jose, CA) and the Kd,app was determined.

ALT (human liver) [3] = target: T1, ALT (human liver); assay: Biopanning of phage-displayed peptide library over immobilized ALT; assay type: binding; settings: 12 phage clones after fifth round of biopanning against ALT
Protocol: ALT (2.6 µg/mL) was dissolved in NaHCO3 buffer (100 mM, pH 8.3) and transferred to the wells of polystyrene microplates. After overnight incubation with mild agitation at 4°C, the well surfaces were coated with ALT. The well surfaces were then blocked with blocking buffer (0.1 M NaHCO3 containing 2% BSA and 0.02% of NaN3) for 1 hr at 4°C, and washed 6 times with TBST (50 mM Tris-HCl pH 7.5, 150 mM NaCl, 0.1% Tween 20) to remove weakly bound ALT. […] Wells were washed 10 times with TBST to remove unbound phage. The bound phage were eluted with 100 µL of 0.2 M glycine-HCl (pH 2.2) and the elution was immediately neutralized with 15 µL Tris-HCl (1 M, pH 9.1) to prevent phage killing. The eluted phage were amplified in E. coli ER2738 and the phage were harvested by precipitation with NaCl/polyethylene glycol (20% (w/v) polyethylene glycol-8000 with 2.5 M NaCl). This biopanning process was repeated for five rounds. The concentration of Tween 20 in the washing step was increased from 0.1% in the first round of panning to 0.3% in the second round of panning and 0.5% in the final three rounds of panning. After each round of panning, the phage were titered using Luria-Bertani (LB) broth plates containing isopropyl β-D-thiogalactopyranoside (IPTG) and X-gal. After the fifth round of selection, twelve blue monocolonies were randomly picked and amplified for DNA sequencing.

ALT (human liver) [4] = target: T1, ALT (human liver); assay: EIS detection of ALT with peptide-modified gold electrode; assay type: binding; settings: biosensor made from the peptide coupled with EIS detection
Protocol: All electrochemical measurements were performed with a µAUTOLAB potentiostat (Type III, FRA2, Metrohm Autolab, Netherlands). A gold wire (dia. 1 mm) sealed in epoxy was used as a working electrode and a platinum mesh was used as a counter electrode. All potentials measured are reported versus a Ag/AgCl reference electrode. Both cyclic voltammetry and EIS measurements were conducted in a solution of 1 mM ferro/ferricyanide in 0.1 M sodium perchlorate.
CV and EIS were performed as previously described. Briefly, the gold electrodes were prepared in 0.1 mM peptide solution for 1 hr, followed by backfilling in 1 mM cysteine solution for 2 hr to obtain a Au-Pep-Cys electrode. The Au-Pep-Cys electrodes were incubated in ALT solution for 1 hr before CV and EIS measurements. After each electrode preparation step, the electrode is removed and placed into solutions of 1 mM ferro/ferricyanide in 0.1 M NaClO4for analysis. Therefore, all the electrochemical measurements were conducted in the ferro/ferricyanide solution which eliminates the effect of any potential viscosity differences between the sample solutions. CV experiments were performed at a potential scan rate of 100 mV/s. Impedance spectra were recorded over a frequency range of 0.1–10^5 Hz. […] The impedance was recorded and a Nyquist plot was obtained. […]

ALT (human liver) [5] = target: T1, ALT (human liver); assay: QCM binding of ALT to immobilized peptide; settings: ALT as compared to BSA and SA, 10 µg/mL each
From the text: All reagents used were analytical grade or higher unless otherwise stated. Escherichia coli strain ER2738, a host for M13 phage, and a polyvalent M13 phage display kit (Ph.D.-12) which contained random 12-mer peptides were obtained from New England Biolabs (Ipswich, MA). ALT (human liver) and lactate dehydrogenase (LDH) were obtained from Lee Biosolutions, Inc. (St. Louis, Missouri). Horseradish peroxidase (HRP) conjugated anti-M13 monoclonal antibody was from GE Healthcare (Piscataway, NJ). Tween 20, 2,2′-Azino-bis(3-ethylbenzothiazoline-6-sulfonic acid) diammonium salt (ABTS), streptavidin (SA) from Streptomyces avidinii, bovine serum albumin (BSA), L-cysteine hydrochloride (98%) and all other chemicals were purchased from Sigma-Aldrich (St. Louis, MO). Polystyrene microplates were from Pierce Biotechnology (Rockford, IL). The ALT5-8 peptide modified with a C-terminal cysteine (sequence: […]) was synthesized (>90% purity) by Genscript (Piscataway, NJ). Quartz crystals (AT-cut, 5 MHz) with Au deposited on both sides were obtained from Inficon (East Syracuse, New York). Buffer solutions (pH = 7.3) containing 0.01 M sodium phosphate and 0.1 M NaCl were used to make all protein (1–10 µg/mL) and peptide (0.1 mM) solutions for the QCM and EIS measurements. All solutions were prepared using Milli-Q water. […]

ALT (human liver) [6] = target: T1, ALT (human liver); assay: Coupled enzyme assay (ALT/LDH, NADH depletion): peptide inhibition of ALT, bi-bi ping-pong fit with competitive inhibitor; assay type: biochemical
Protocol: ALT enzyme kinetics were measured to determine the impact of the ALT5-8 peptide on the activity of the enzyme. Kinetic experiments were performed in a coupled assay where the pyruvate generated by ALT was reduced to lactate by LDH with the concomitant oxidation of NADH. The depletion of NADH was monitored by following its absorbance at 340 nm in UV-transparent microplates. […] The reactions were initiated by the addition of 330 U/L ALT and all measurements were made in triplicate. All stock solutions were prepared in 100 mM Tris-HCl buffer (pH 7.8), and all kinetic trials were conducted 300 µL at 37 °C. […] Free ALT5-8 peptide inhibitor (I) was added to the reactions at concentrations from 0–0.25 µM.

alanine aminotransferase [7] = target: T2, alanine aminotransferase (Homo sapiens, UniProt P24298); assay: phage ELISA
T2 chain: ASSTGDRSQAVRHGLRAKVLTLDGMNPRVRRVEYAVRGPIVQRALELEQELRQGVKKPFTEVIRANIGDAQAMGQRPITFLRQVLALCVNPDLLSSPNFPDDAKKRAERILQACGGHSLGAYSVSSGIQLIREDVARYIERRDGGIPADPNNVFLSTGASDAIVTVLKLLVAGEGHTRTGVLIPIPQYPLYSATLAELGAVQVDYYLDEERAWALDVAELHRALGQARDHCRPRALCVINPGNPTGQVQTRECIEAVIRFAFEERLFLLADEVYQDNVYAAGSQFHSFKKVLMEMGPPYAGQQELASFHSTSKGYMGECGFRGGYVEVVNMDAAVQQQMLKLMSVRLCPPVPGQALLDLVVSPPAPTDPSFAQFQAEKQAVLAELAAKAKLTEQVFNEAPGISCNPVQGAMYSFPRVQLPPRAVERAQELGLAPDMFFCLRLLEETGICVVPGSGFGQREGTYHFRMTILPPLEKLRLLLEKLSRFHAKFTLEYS

alanine aminotransferase [8] = target: T2, alanine aminotransferase; assay: enzyme inhibition kinetics
[9] = substrate: C[C@H](N)C(=O)O; assay: purified protein, by the assay type; settings: other: substrate of ALT, absence of peptide, pH 7.8, 37 °C, triplicate, bi-bi ping-pong fit (Eqn. 1)
alanine aminotransferase [10] = target: T2, alanine aminotransferase; assay: QCM

α-ketoglutarate [reference compound]
Km (ALT (human liver) [1]; substrate of ALT, read-out: Michaelis constant KM): 90 ± 30 µM

LETEWDSLWYAP [ALT5-9]
affinity of phage clone for immobilized ALT (in words) (ALT (human liver) [2]): low affinity for ALT similar to that of the M13 control phage
Frequency of sequence among sequenced clones (ALT (human liver) [3]): 1/12

SNNLYPQRAVST [ALT4-3]
affinity of phage clone for immobilized ALT (in words) (ALT (human liver) [2]): low affinity for ALT similar to that of the M13 control phage
Frequency of sequence among sequenced clones (ALT (human liver) [3]): 1/12

WHWRNPDFWYLK [ALT5-8, 12-mer peptide selected by M13 phage display over ALT; tested on phage and as free peptide]
limit of detection (LOD), EIS (ALT (human liver) [4]): 0.092 µg/mL
selectivity (in words) (ALT (human liver) [5]): selective for ALT as compared to BSA and SA
affinity of phage clone for immobilized ALT (in words) (ALT (human liver) [2]): dose-dependent affinity for the ALT protein
Frequency of sequence among sequenced clones (ALT (human liver) [3]): 10/12
mode of inhibition (ALT (human liver) [6]; Lineweaver-Burk plots, with respect to alanine): competitive inhibitor
residual enzyme activity with peptide (in words) (ALT (human liver) [6]; peptide to protein ratio 2∶1): the enzyme was still quite active

WHWRNPDFWYLK (displayed on M13 phage) [ALT5-8 peptide (phage-displayed)]
Kd (alanine aminotransferase [7]): 85 nM

WHWRNPDFWYLK [ALT5-8 peptide]
Ki (alanine aminotransferase [8]): 71 nM

B1: ALT (human liver) (Homo sapiens) (protein)
chain: ASSTGDRSQAVRHGLRAKVLTLDGMNPRVRRVEYAVRGPIVQRALELEQELRQGVKKPFTEVIRANIGDAQAMGQRPITFLRQVLALCVNPDLLSSPNFPDDAKKRAERILQACGGHSLGAYSVSSGIQLIREDVARYIERRDGGIPADPNNVFLSTGASDAIVTVLKLLVAGEGHTRTGVLIPIPQYPLYSATLAELGAVQVDYYLDEERAWALDVAELHRALGQARDHCRPRALCVINPGNPTGQVQTRECIEAVIRFAFEERLFLLADEVYQDNVYAAGSQFHSFKKVLMEMGPPYAGQQELASFHSTSKGYMGECGFRGGYVEVVNMDAAVQQQMLKLMSVRLCPPVPGQALLDLVVSPPAPTDPSFAQFQAEKQAVLAELAAKAKLTEQVFNEAPGISCNPVQGAMYSFPRVQLPPRAVERAQELGLAPDMFFCLRLLEETGICVVPGSGFGQREGTYHFRMTILPPLEKLRLLLEKLSRFHAKFTLEYS
Km [9]: 8000 ± 900 µM
kcat (ALT (human liver) [1]): 5.8 ± 0.2 s⁻¹

WHWRNPDFWYLKC (immobilized on gold via C-terminal cysteine) [ALT5-8 peptide (C-terminal Cys)]
Kd (alanine aminotransferase [10]): 20.1 nM
